Experimental findings from PubChem BioAssay AID179 (DTP/NCI, 2004) are described below.

Each structure is given as a SMILES string. Activity calls are given as the source filed them.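 The calls were made as follows: active = compounds giving half or more protection of infected cells from virus-caused growth loss, again on retest; inactive = the rest.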 Bounds are passed on as bounds.

For the test, the system named is CEM cells HIV-1 protection, formazan growth assay. Nature of the test: NCI AIDS Antiviral Assay. To be noted: for IC50: measured here: growth of uninfected CEM cells. Summed up:
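CEM (human) cells, HIV-1 infected vs uninfected, 5-point dosing, formazan growth read-out. Retest threshold 50% protection.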

Usually EC50 stands for the midpoint of the concentration-response curve. The IC50 is the concentration at which inhibition is half-maximal. High values mean weaker potency, low ones greater potency. As for `Cc1cc(Br)cc(C)c1NC(=O)C(=O)C(C(=O)c1ccc(Cl)c(Cl)c1)C1OC(=O)c2ccccc21` (configuration not stated), the EC50 is over 49 µM and the IC50 was 6.76 µM.
In the same order, the values of `C=CCn1c(=S)[nH]c2c(Cl)cc(Cl)cc2c1=O` are over 200 µM and 107 µM.
In the same order, the values of `Cc1cc2c(cc1C)[n+](=O)c(C(=O)C/C(=N/NC(=O)CC#N)C(=O)Nc1ccccc1C(F)(F)F)c(C)n2[O-]` are over 13.2 µM and over 13.2 µM.
In the same order, the values of `CCCNC(=S)N=Nc1c(O)[nH]c2ccccc12` are over 200 µM and over 200 µM.
As for `Cc1ccc(C2(c3ccccc3)OC3OC=CC32)cc1` (configuration not stated), the EC50 is over 200 µM and the IC50 was 70.8 µM.
In the same order, the values of `Nc1ccc2c(c1)Oc1c(F)c(F)cc3c(=O)c(C(=O)O)cn-2c13` are over 11.5 µM and 11.2 µM.
The like results for `O=C1Nc2nccnc2C(=O)N2CCC[C@@H]12` were, in that order, over 200 µM and over 200 µM.
Regarding `S=C(NCCc1ccccn1)N/N=C/c1ccccn1`, the EC50 was over 2 µM and the IC50 was 0.0257 µM.
The like results for `Fc1cccc(F)c1C1SCc2nc3cc(Cl)c(Cl)cc3n21` (configuration not stated) were, in that order, 120 µM and 195 µM.
`OCC1OC2NC(=S)OC2C(O)C1O` (configuration not stated): the EC50 was over 200 µM and the IC50 was over 200 µM.
With `CC1OC(OC2C(Oc3cc(O)c4c(c3)OC(c3ccc(O)cc3)CC4=O)OC(CO)C(O)C2O)C(O)C(O)C1O` (configuration not stated), the EC50 is over 200 µM and the IC50 is over 200 µM.
For `N#C/C(C(=O)NCc1ccccc1)=C(/N)N1CCCC1`, the EC50 was over 200 µM and the half-maximal inhibitory concentration (IC50) is over 200 µM.
Take `O=C(O)C1(P(=O)(O)O)CC1`: the outcome was inactive.
On to `c1ccc2c(c1)ccc1c2nc2c3ccccc3[nH]n12`, for which the EC50 is 0.245 µM and the IC50 amounted to 10.7 µM.
The like results for `COc1cccc(C2=NC(C(C)(C)C)CO2)c1-c1ccccc1C1OCCO1` (configuration not stated) were, in that order, over 339 µM and over 339 µM.
The like results for `O=c1[nH]nc(Cc2ccc([N+](=O)[O-])cc2)[nH]1` were, in that order, over 200 µM and over 200 µM.
In turn, `C1=CC(=[N+]2N=C(c3ccccc3)CC2c2ccccc2)C=CC1=C1SC(c2ccccc2)(c2ccccc2)c2ccccc21` (configuration not stated) came in with a 50% effective concentration (EC50) of over 200 µM and an IC50 of over 200 µM.
`O=c1ccn(C(CO)OC(CO)CCP(=O)(O)O)c(=O)[nH]1` (configuration not stated): the EC50 is over 200 µM and the IC50 was over 200 µM.
Take `[N-]=[N+]=CC(=O)OCCCCl`: the EC50 was over 200 µM and the IC50 was over 200 µM.
As to `COc1ccc(NC(=S)N/N=C/c2ccccn2)cc1`, the EC50 was over 2 µM and the IC50 worked out at 0.316 µM.
Turning to `CN(C)[C@@H]1C(=O)C(C(=O)NCNCCCC(=O)O)=C(O)[C@@]2(O)C(=O)C3=C(O)c4c(O)cccc4[C@@](C)(O)[C@H]3C[C@@H]12`, the EC50 was over 1.78 µM and the IC50 was over 1.78 µM.
As for `O=S(=O)(O)CC(S(=O)(=O)O)S(=O)(=O)O`, the EC50 was over 200 µM and the half-inhibitory concentration (IC50) was over 200 µM.
Turning to `[B]C(=O)NC(CC(C)C)C(=O)NC1c2ccsc2C(=O)C1O` (configuration not stated) (tested in a mixture with another compound), the EC50 was over 200 µM and the IC50 was over 200 µM.
For `O=C1c2ccccc2C(=O)c2c1ccc1conc21`, the result was inactive.
With `Nc1nc(Cl)c(N)c(NCC2(CO)CC(Cc3ccccc3)C2)n1` (configuration not stated), the EC50 was over 200 µM and the IC50 amounted to 19.5 µM.
Turning to `CCCCCCCCC1=C(OC)C(=O)c2ccc(C)nc2C1=O`, the outcome was inactive.
Turning to `COC(O)C(=O)c1c2c(cc3c1CC1(Cc4cc5c(cc4C1)CCC5)C3)CCC2` (configuration not stated), the EC50 is over 200 µM and the IC50 came out at 33.1 µM.
The like results for `CCOC(=O)SC1=NC(C)=CC(C)(C)S1` were, in that order, 53.7 µM and 145 µM.
The like results for `COC(=O)/C=C(C)/C=C/c1cc(C(C)=O)c(C)o1` were, in that order, over 145 µM and 102 µM.
For `Oc1cc(O)c2c(c1)OC(c1ccc(O)c(O)c1)C(O)[C@H]2c1c(O)cc(O)c2c1OC(c1ccc(O)c(O)c1)C(O)C2` (some centres not stated), the EC50 was over 200 µM and the IC50 is 110 µM.
In the same order, the values of `Cc1ccc([P+](Cc2ccc([N+](=O)[O-])cc2)(c2ccc(C)cc2)c2ccc(C)cc2)cc1` are over 200 µM and 3.63 µM.
Regarding `CC(=O)C(C)(C)CCC(C)(C)C(C)=O`, the outcome was inactive.
For `CC(=O)N1N=C(c2c(O)ccc3ccccc23)CC1C(=O)c1ccco1` (configuration not stated), the EC50 is over 200 µM and the IC50 turned out to be 35.5 µM.
In the same order, the values of `Cc1nn(C(=O)c2ccc(Cl)cc2)c2c1C(c1ccccc1O)SC(N)=N2` (configuration not stated) are over 200 µM and 107 µM.
In the same order, the values of `Clc1ccc(-c2nn3c(C45CC6CC(CC(C6)C4)C5)nnc3s2)cc1` are over 200 µM and over 200 µM.
In the same order, the values of `CC1(C)OC2=C(CC1Br)C(=O)C(=O)c1ccccc12` (configuration not stated) are over 2 µM and 1.26 µM.
Turning to `O=C(CNC(=O)OCc1ccccc1)NCCCCC(NC(=O)OCc1ccccc1)C(=O)O` (configuration not stated), the EC50 is over 200 µM and the IC50 is over 200 µM.
Turning to `COC(=O)C1CC2C(=O)N(c3ccccc3)C(=O)C2c2c1n(C)c1ccccc21` (configuration not stated), the EC50 is over 32.4 µM and the IC50 was over 32.4 µM.
For `COc1ccc2nccc(NCCCN3CCN(CCCNc4ccnc5ccc(OC)cc45)CC3)c2c1`, the EC50 was over 0.537 µM and the IC50 turned out to be 0.105 µM.
In the same order, the values of `CC(C)CNC(=S)N/N=C\c1ccncc1` are over 200 µM and 105 µM.
The like results for `CCN(CC)CCCNCc1cc(Cl)c2cccnc2c1O` were, in that order, over 200 µM and 9.77 µM.
Take `CC(C)CN(CC(=O)Nc1cccc(Cl)c1)CC(C)C`: the EC50 was over 200 µM and the IC50 stood at 141 µM.
In the same order, the values of `CCOP(=S)(Nc1cccc(C(F)(F)F)c1)OCC` are over 200 µM and 166 µM.
As to `COC(=O)C1CSC(c2csc(CCN)n2)=N1` (configuration not stated), the result was inactive.
With `CNc1ccc(Cl)cc1S(=O)(=O)c1ccc(OC)cc1`, the EC50 was over 200 µM and the IC50 worked out at 2.14 µM.
Take `CC(C)(C)n1c(=O)n2n(c1=O)C1c3cccc4cccc(c34)C2C2c3cccc4cccc(c34)C1n1c(=O)n(C(C)(C)C)c(=O)n12`: the EC50 was over 200 µM and the IC50 came to 50.1 µM.
For the compound `CC/C(=C(\c1ccccc1)c1ccc(OCC[N+](C)(C)C)cc1)c1ccccc1`, the outcome was inactive.
With `Nc1c2c([nH]c(=O)c1N)CCC2`, the EC50 was over 200 µM and the IC50 is over 200 µM.
Consider `CC1CCN(C(C)(C)C)P(=O)(Cc2ccccc2)O1` (configuration not stated), for which the result was inactive.
For `Cc1c2ccc(Cl)cc2nc2ccc(OCCCCCCNC(=O)CCCN=C(N)N)cc12`, the EC50 was over 50.1 µM and the IC50 worked out at 22.9 µM.
The like results for `CCc1c2[n-]c(c1C)/C=c1\[n-]/c(c(C)c1CC)=C\c1[n-]c(c(CCC(=O)O)c1C)/C=c1\[n-]/c(c(C)c1CCC(=O)O)=C\2.[Zn]` were, in that order, over 21.4 µM and 13.5 µM.
For `CC(=O)C1(C)CCC2C3C=C(C)C4=CC(=O)CCC4(C)C3CCC21C` (configuration not stated), the EC50 was over 117 µM and the IC50 was determined as 16.2 µM.
